From paper PMC8252719, “Macrocyclic FKBP51 Ligands Define a Transient Binding Mode with Enhanced Selectivity” (Angewandte Chemie (International Ed. in English), 2021)
Like-named read-outs stand apart in the source and are kept apart here.

Assays:
FKBP51FK1 [1] = molecular target: T1, FKBP51FK1 (Homo sapiens, UniProt Q13451); test: competitive fluorescence polarization assay, FKBP51FK1; assay type: binding; conditions: ± = standard error from three independent measurements [b] or error from two independent measurements [d], read-out: FKBP51FK1 K i
T1 sequence (Q13451 42-130 limits assumed): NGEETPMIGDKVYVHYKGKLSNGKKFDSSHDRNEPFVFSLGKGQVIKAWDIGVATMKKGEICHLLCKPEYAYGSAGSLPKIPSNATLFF
Experimental: Table S1. Ki values were determined by a competitive fluoresc ence polarization assay.
4.1 Binding curves of 13a, c and d […]

FKBP12 = FKBP12 (Homo sapiens, UniProt P62942); test: competitive fluorescence polarization assay, FKBP12; assay type: binding; conditions: for Ki: competitive fluorescence polarization assay, >80 μM = highest measurable concentration before compound precipitation, ± = standard error from three independent measurements, read-out: FKBP12 K i
FKBP12.6 = FKBP12.6 (Homo sapiens, UniProt P68106); test: competitive fluorescence polarization assay, FKBP12.6; assay type: binding; conditions: for Ki: competitive fluorescence polarization assay, >80 μM = highest measurable concentration before compound precipitation, ± = standard error from three independent measurements, read-out: FKBP12.6 K i
[2] = tested on: IKKα phosphorylation in SIM-A9 cells; test: IKKα inhibition in SIM-A9 cells (Western blot); assay type: cell-based, murine; conditions: for concentration at which apparent maximal inhibition of IKKα phosphorylation was already reached: SIM-A9 cells, lowest tested concentration; for inhibition of IKKα phosphorylation (in words) / dose-dependence of inhibition of IKKα phosphorylation: murine microglia SIM-A9 cells, 16 h treatment, Western blot; for inhibition of IKKα phosphorylation (in words): three (macrocycles) or six (SAFit) independent cellular assays
Experimental: We next explored if the macrocyclic ligands could interfere with the cellular functions of FKBP51. We therefore treated SIM‐A9 cells, which were recently discovered as a SAFit‐sensitive cellular model for stress‐mediated secretory autophagy. ^[24] […] (Figure 2 F and S6C). […]
5.2 IKKα inhibition in SIM-A9 cells
Cell culture and treatments
Murine microglia SIM-A9 cells were cultured at 37 °C, 5% CO2 in Dulbecco's Modified Eagle Medium (DMEM) high glucose with GlutaMAX (Thermo Fisher Scientific, 10566016), supplemented with 1 mM sodium pyruvate (Thermo Fisher Scientific, 11360-070), 10% fetal bovine serum (PAN Biotech, P30-8500), and 1% antibiotic-antimycotic (Thermo Fisher Scientific, 15240-062).
For the preparation of whole-cell lysates, confluent SIM-A9 cell cultures treated with the indicated compounds for 16 h in the above mentioned growth medium, were washed two times with ice-cold DPBS (Thermo Fisher Scientific, 14190-144) and lysed in an appropriate volume of RIPA buffer (Thermo Fisher Scientific, 89901), freshly supplemented with 1x cOmplete™ EDTA-free protease inhibitor cocktail (Roche, 4693132001) and 1x PhosSTOP™ phosphatase inhibitor cocktail (Roche, 4906837001) for 20 min on ice.
Subsequently, samples were centrifuged for 10 min at 4°C at 13000 rpm. The resulting supernatants were transferred to new 1.5 ml reaction tubes and prepared for separation with an SDS-PAGE system and analyzed by immunoblotting.
SDS-PAGE and immunoblotting
Separation of proteins was performed with the Criterion™ Vertical Electrophoresis Cell System (Bio-Rad, 1656001) on 4–20% Criterion™ TGX™ Precast Midi Protein Gels (Bio-Rad, 5671095). Immunoblotting was performed with the Trans-Blot Turbo Transfer System (Bio-Rad, 1704150) on 0.2 µm PVDF Trans-Blot Turbo Transfer Membranes (Bio-Rad, 1704157). For immunodetection, membranes were placed in TBS, supplemented with 0.05% Tween (Sigma-Aldrich, P9416) and 5% non-fat milk (Carl Roth, T145.1) for 1 h at RT and then incubated with the primary antibody diluted in TBS-T overnight at 4°C. Following primary antibodies were used:
Phospho-IKKα S176/phospho-IKKβ S177 (1:1000, Cell Signaling Technology, 2078), IKKα (1:1000, Cell Signaling Technology, 1682) and GAPDH (1:1000, Cell Signaling Techology, 5174).
Then, immunoblots were washed and probed with horseradish peroxidase- conjugated secondary antibody (1:10000, Cell Signaling Technology, 7074) for 1 h at RT. Immunoreactive protein bands were visualized using Clarity Western ECL Substrate (Bio-Rad, 1705061) or Clarity Max Western ECL Substrate (Bio-Rad, 1705062). Determination of the band intensities was performed with […]

FKBP51FK1 [3] = molecular target: T1, FKBP51FK1; test: isothermal titration calorimetry (ITC); assay type: binding
Experimental: 1. ITC of compounds 13a and 13d
Figure S1. A) Binding of compound 13a to FKBP51FK1 determined by isothermal titration calorimetry at 25 °C. A 20 µM solution FKBP51FK1 formulated in 20 mM
HEPES pH 8.0, 20 mM NaCl, 5% glycerol and 2% DMSO was placed in the sample cell of a PEAK-ITC instrument. The syringe was filled with a 200 µM solution of
13a formulated in the same buffer. After equilibration the compound was titrated into the sample cell by 12 injection s of 3 µl each. The obtained data was analyzed
Binding of compound 13d to FKBP51FK1 determined by isothermal titration calorimetry at 25 °C. A 13 µM solution FKBP51FK1 formulated in 20 mM HEPES pH
8.0, 20 mM NaCl, 5% glycerol and 2% DMSO was placed in the sample cell of a PEAK -ITC instrument. The syringe was filled with a 10 0 µM solution of 13d
formulated in the same buffer. After equilibration the compound was titrated into the sample cell by 12 injections of 3 µl each. The obtained data was analyzed using […]

[4] = fluorescence polarization assay

Sequence of FKBP12 (P62942 whole entry): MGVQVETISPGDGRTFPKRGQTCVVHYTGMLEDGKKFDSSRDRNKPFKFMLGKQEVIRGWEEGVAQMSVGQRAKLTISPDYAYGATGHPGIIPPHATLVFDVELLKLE
Sequence of FKBP12.6 (P68106 whole entry): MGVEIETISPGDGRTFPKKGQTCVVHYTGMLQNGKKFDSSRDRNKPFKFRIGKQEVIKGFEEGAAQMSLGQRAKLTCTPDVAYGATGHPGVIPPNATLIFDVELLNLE

Ki (FKBP12)	Ki (FKBP12.6)	Ki (FKBP51FK1 [1])	SMILES	inhibition of IKKα phosphorylation (in words) [2]	also measured
> 80 µM	> 80 µM		COc1ccc(CC[C@H]2OC(=O)[C@@H]3CCCCN3C(=O)[C@@H](C3CCCCC3)NC(=O)C(C)(C)NC(=O)COc3cccc2c3)cc1OC [13 c]	inhibited	Ki (FKBP51FK1 [1]; SEM): 0.29 ± 0.05 µM; concentration at which apparent maximal inhibition of IKKα phosphorylation was already reached [2]: ≤ 1 µM
> 80 µM	> 80 µM	7.4 µM	COc1ccc(CC[C@H]2OC(=O)[C@@H]3CCCCN3C(=O)[C@@H](C3CCCCC3)NC(=O)CCNC(=O)COc3cccc2c3)cc1OC [13 l]		
> 80 µM	> 80 µM		COc1ccc(CC[C@H]2OC(=O)[C@@H]3CCCCN3C(=O)[C@@H](C3CCCCC3)NC(=O)CNC(=O)COc3cccc2c3)cc1OC [13 a]		Ki (FKBP51FK1 [1]; SEM): 2.3 ± 0.05 µM; Kd (FKBP51FK1 [3]; 25 °C, 20 mM HEPES pH 8.0, 20 mM NaCl, 5% glycerol, 2% DMSO, one-site binding model, mean ± SD from 3 independent experiments, SD, read-out: Kd-value for FKBP51FK1 by ITC): 3.6 ± 0.9 µM; Kd (FKBP51FK1 [3]; isothermal calorimetry, enthalpy-driven, read-out: K d for FKBP51 by ITC): 3.6 µM
> 80 µM	> 80 µM		COc1ccc(CC[C@H]2OC(=O)[C@@H]3CCCCN3C(=O)[C@@H](C3CCCCC3)NC(=O)[C@H]3CCCN3C(=O)COc3cccc2c3)cc1OC [13 i, (9R,12R,19S,22R)-12-cyclohexyl-22-[2-(3,4-dimethoxyphenyl)ethyl]-2,21-dioxa-5,11,14-triazatetracyclo[21.3.1.0⁵,⁹.0¹⁴,¹⁹]heptacosa-1(26),23(27),24-triene-4,10,13,20-tetrone]	inhibited	dose-dependence of inhibition of IKKα phosphorylation [2]: clear dose‐dependence
> 80 µM	> 80 µM	0.37 µM	COc1ccc(CC[C@H]2OC(=O)[C@@H]3CCCCN3C(=O)[C@@H](C3CCCCC3)NC(=O)C(C)(C)N(C)C(=O)COc3cccc2c3)cc1OC [13 h]	inhibited	concentration at which apparent maximal inhibition of IKKα phosphorylation was already reached [2]: ≤ 1 µM
			COc1ccc(CC[C@@H](OC(=O)[C@@H]2CCCCN2C(=O)[C@H](c2cc(OC)c(OC)c(OC)c2)C2CCCCC2)c2cccc(OCCN3CCOCC3)c2)cc1OC [SAFit2, reference compound]	inhibited	dose-dependence of inhibition of IKKα phosphorylation [2]: clear dose‐dependence
> 80 µM	> 80 µM	1.3 µM	COc1ccc(CC[C@H]2OC(=O)[C@@H]3CCCCN3C(=O)[C@@H](C3CCCCC3)NC(=O)C3(CCCC3)NC(=O)COc3cccc2c3)cc1OC [13 f]		
> 80 µM	> 80 µM		COc1ccc(CC[C@H]2OC(=O)[C@@H]3CCCCN3C(=O)[C@@H](C3CCCCC3)NC(=O)[C@@H](C)NC(=O)COc3cccc2c3)cc1OC [13 b, (2R,5S,12R,15R)-12-cyclohexyl-2-[2-(3,4-dimethoxyphenyl)ethyl]-15-methyl-3,19-dioxa-10,13,16-triazatricyclo[18.3.1.0⁵,¹⁰]tetracosa-1(24),20,22-triene-4,11,14,17-tetrone]		
> 80 µM	> 80 µM		COc1ccc(CC[C@H]2OC(=O)[C@@H]3CCCCN3C(=O)[C@@H](C3CCCCC3)NC(=O)[C@H](C)NC(=O)COc3cccc2c3)cc1OC [13 j, (2R,5S,12R,15S)-12-cyclohexyl-2-[2-(3,4-dimethoxyphenyl)ethyl]-15-methyl-3,19-dioxa-10,13,16-triazatricyclo[18.3.1.0⁵,¹⁰]tetracosa-1(24),20,22-triene-4,11,14,17-tetrone]		
		1.2 µM	COc1ccc(CCC2OC(=O)C3CCCCN3C(=O)C(C3CCCCC3)CC(O)C(O)COCCOc3cccc2c3)cc1OC (mixture of isomers) [9 g]		binding to FKBP12 (in words) (FKBP12; [4]): did not bind; binding to FKBP12.6 (in words) (FKBP12.6; [4]): did not bind
> 80 µM	> 80 µM	3.1 µM	COc1ccc(CC[C@H]2OC(=O)[C@@H]3CCCCN3C(=O)[C@@H](C3CCCCC3)NC(=O)CN(C)C(=O)COc3cccc2c3)cc1OC [13 g]		
> 80 µM	> 80 µM	0.4 µM	COc1ccc(CC[C@H]2OC(=O)[C@@H]3CCCCN3C(=O)[C@@H](C3CCCCC3)NC(=O)C3(CCC3)NC(=O)COc3cccc2c3)cc1OC [13 e]	inhibited	dose-dependence of inhibition of IKKα phosphorylation [2]: clear dose‐dependence
> 80 µM	> 80 µM		COc1ccc(CC[C@H]2OC(=O)[C@@H]3CCCCN3C(=O)[C@@H](C3CCCCC3)NC(=O)[C@@H]3CCCN3C(=O)COc3cccc2c3)cc1OC [13 k, (9S,12R,19S,22R)-12-cyclohexyl-22-[2-(3,4-dimethoxyphenyl)ethyl]-2,21-dioxa-5,11,14-triazatetracyclo[21.3.1.0⁵,⁹.0¹⁴,¹⁹]heptacosa-1(26),23(27),24-triene-4,10,13,20-tetrone]		
			COc1ccc(CC[C@@H](OC(=O)[C@@H]2CCCCN2C(=O)[C@H](c2cc(OC)c(OC)c(OC)c2)C2CCCCC2)c2cccc(OCC(=O)O)c2)cc1OC [SAFit1, reference compound]	inhibited	Ki (FKBP51FK1 [1]; SEM): 0.004 ± 0.001 µM; Ki (FKBP12; SEM): 0.163 ± 0.009 µM; Ki (FKBP12.6; SEM): 0.019 ± 0.002 µM; dose-dependence of inhibition of IKKα phosphorylation [2]: clear dose‐dependence
